Experimental data as given in patent US4692433A, “Method and composition for regulating serum calcium levels of mammals” (The Regents of the University of California, priority 1985, dated 1987).

Legend:
fasted normal rats = assay: Serum calcium change after oral administration of salmon calcitonin preparations; assay type: in vivo, rat
Description: (§1) The polypeptide hormone is incorporated into the liposome as follows: the phospholipid components are dissolved in an organic solvent such as chloroform. The solvent is then removed to produce a lipid film. A buffer solution containing the polypeptide hormone is then added and mixed to form a suspension of the phospholipid film and polypeptide hormone. The suspension is then sonicated to form the liposome-entrapped polypeptide hormone. The suspension is then centrifuged at 120,000 times g for 16 hours to obtain a pellet consisting of liposome-entrapped hormone while the supernatant contains the unentrapped hormone. The liposomes in the pellet are then taken up in a small amount of buffer and subsequently used to influence calcium homestasis by oral administration.
Purified salmon and human calcitonin or human parathyroid hormone (1-34 amino acid fragment) were incorporated into liposomes consisting of natural or synthetic phospholipids and positively-charged amine-containingamphiphile. Liposomes containing the entrapped hormones were isolated by centrifugation, resuspended in buffer and administered by stomach tube to fasted normal rats (calcitonin) or fasted parathyroidectomized rats (parathyroid hormone). The serum calcium was determined at various time intervals in treated and untreated animals to assess the effect of the respective preparations. […]

[1] = system: fasted parathyroidectomized rats; assay: Serum calcium change after oral administration of PTH preparations by stomach tube; assay type: in vivo, rat
Description: as §1
Purified salmon and human calcitonin or human parathyroid hormone (1-34 amino acid fragment) were incorporated into liposomes consisting of natural or synthetic phospholipids and positively-charged amine-containingamphiphile. Liposomes containing the entrapped hormones were isolated by centrifugation, resuspended in buffer and administered by stomach tube to fasted normal rats (calcitonin) or fasted parathyroidectomized rats (parathyroid hormone). The serum calcium was determined at various time intervals in treated and untreated animals to assess the effect of the respective preparations.
450 micromoles of egg phosphatidylcholine (ePC) and 50 micromoles of stearylamine (SA) were dissolved in 2 to 3 ml of anhydrous chloroform placed in a 30 ml glass stopper tube and the solvent was removed in vacuo. To the thin film of lipid remaining on the wall of the tube was added 5.0 ml of buffer (20 mM NaCl containing 5 mM Tris, pH 7.4) containing 1 mg human PTH (hPTH 1-34) and 1×10^6 CPM of I^125 -human PTH tracer (hPTH 1-34). The buffer was mixed at room temperature for 5 minutes using a vortex mixer.
After vortexing the mixture was sonicated for 3 minutes at room temperature using the cuphorn of a Heat Systems Ultrasonics sonicator at maximal output. […]

Compound | enhancement of the calcitonin effect on serum calcium by additive (in words) (fasted normal rats) | Change in serum Ca2+ ([1]; Table 2: oral, 40 μg, after 2 hr, triplicate, mean ± Std. error of mean) | Change in serum Ca2+ ([1]; Table 3: 2 hours after oral administration to rats, 40 μg PTH, values marked (3) are triplicate mean ± Std. error of mean) [mg/dL] | effect on serum calcium (in words) ([1]; oral administration to rats, equivalent dose)
CC(=O)Oc1ccccc1C(=O)O [aspirin] | enhances slightly the effect of free CT |  |  | 
Free PTH: free human parathyroid hormone, 1-34 amino acid fragment, given orally (SVSEIQLMHNLGKHLNSMERVEWLRKKLQDVHNF; Parathyroid hormone; UniProt P01270 32-65, looked up, fragment) |  | +0.08 0.25 mg/dl | -0.05 | no effect
